In patent US7767232B2, “Control of nitric oxide bioactivity by perfluorocarbons” (New York University, priority 2002, dated 2010):

What was measured:
rats [1] = experiment: Plasma low molecular weight S-nitrosothiols and mean arterial pressure after Perftoran and thiols in rats; format: in vivo, rat; conditions: cysteine 1 mg/kg intravenously, without perfluorocarbon
Description: Plasma low molecular weight-S-nitrosothiols were determined using CuCl2 to displace NO from thiol residues followed by electrochemical detection of released NO (Rafikova et al., 2002). The concentration of CuCl2, 40 μM, was selected to decompose predominantly low molecular weight S-nitrosothiols.

rats [2] = experiment: Relation of perfluorocarbon hemodynamic effects to NO: L-NAME and potassium nitrite treated rats, mean arterial pressure; format: in vivo, rat
nitrosothiols formation = experiment: Effect of α-dihydrolipoic acid on nitrosothiol formation and vasorelaxation in the presence of perfluorocarbons; conditions: FIG. 8, in vitro and in vivo
From the text: If delivered at small concentrations, i.e., less than 1% v/v, and in conjunction with low molecular weight nucleophiles, such as thiols or mixtures of thiols, perfluorocarbons act as a powerful vasodilator rather than as a vasoconstrictor. NO^+ originated from N2O3 in the perfluorocarbon micelles can be transferred to various low molecular weight nucleophiles, exemplified as RSH, by two possible pathways, as shown in FIG. 7. Direct attack on RSH is possible at the surface of perfluorocarbon micelles or inside the micelles, if the RSH were hydrophobic enough to enter it, as shown in pathway I of FIG. 7. Additionally, NO can reach various RSH via a transnitrosation reaction by using a lipophilic low molecular weight “shuttle”, as shown in FIG. 7. One example of such an NO shuttle is α-lipoic acid (α-LA), which is normally present in the circulation at low (micromolar) concentrations (Keipert, 2001). α-lipoic acid has a highly hydrophobic tail (FIG. 7A), which can readily penetrate the perfluorocarbon micelle where it is nitrosated. Since both SH groups of α-dihydro-lipoic acid are located next to each other, upon nitrosation they would almost immediately form an S-S adduct and release NO^+. […]

N[C@@H](CS)C(=O)O [cysteine, L-cysteine]
effect on blood pressure (rats [1]): virtually no effect
effect on plasma low molecular weight S-nitrosothiols (rats [1]): virtually no effect

O=N[O-].[K+] [potassium nitrite]
effect on mean arterial pressure after L-NAME (rats [2]; 1 mg/kg potassium nitrite about 90 minutes after L-NAME): partially restored mean arterial pressure
mean arterial pressure above the baseline (rats [2]; nitrite-treated (L-NAME) rats without Perftoran, same time): about 24 mmHg

O=C(O)CCCC[C@@H](S)CCS [α-dihydrolipoic acid]
effect on formation of nitrosothiols and vasorelaxation (nitrosothiols formation): simulating effect
